Source: publication PMC5877736, “Functional Characteristics, Electrophysiological and Antennal Immunolocalization of General Odorant-Binding Protein 2 in Tea Geometrid, Ectropis obliqua” (International Journal of Molecular Sciences, 2018)
Read-outs that look alike come from different tables or passages of the source.

Key:
EoblGOBP2 = EoblGOBP2 (Ectropis obliqua, UniProt C0JAP5); assay: Competitive fluorescence ligand-binding assay with 1-NPN as fluorescent probe; details: for binding to EoblGOBP2 (in words): competitive binding with 1-NPN
Procedure: For EoblGOBP2 binding assays, 1-NPN was used as a competitive fluorescent reporter. When 1-NPN was added dropwise to the protein solution, the maximum emission peak at 340 nm was shifted to about 420 nm. The dissociation constant of 1-NPN to EoblGOBP2 was approximately 2.31 μM calculated using the Scatchard equation (Figure 5A). Using 1-NPN as a fluorescent probe, the binding affinities of EoblGOBP2 to 19 ligands were measured using competitive binding assays. IC50 values and dissociation constants (KD) were then calculated (Table 1).
Ligand-binding assays were performed on a RF-5031pc Fluorescence Spectrophotometer (Shimadzu, Tokyo, Japan). The excitation and emission slits were set to 10 nm. Fluorescence spectra were recorded from 300 to 550 nm with an excitation wavelength of 282 nm. The recombinant EoblGOBP2 protein solutions (1.5 μM), served in 1 cm light path quartz cuvette, were titrated with 1 mM 1-NPN solution in methanol. The fluorescence intensity at the maximum emission wavelength of about 328 nm was linearized using the Scatchard equation [46], then the dissociation constants for 1-NPN (K1-NPN) was calculated.
Nineteen fresh tea leaf volatiles were used as test ligands. For the binding affinities of the ligands to EoblGOBP2, a mixture of 1-NPN and EoblGOBP2 protein was titrated with 1 μM ligands dissolved in methanol. The IC50 values were obtained by data linearization, and the dissociation constants (KD) were calculated using the following equation: KD = [IC50]/(1 + [1-NPN]/K1-NPN), where [1-NPN] is the free concentration of 1-NPN, and K1-NPN is the dissociation constant of the protein/1-NPN complex.

E. obliqua antennae = assay: Electroantennogram (EAG) of male and female antennae; set-up: species or system Ectropis obliqua; details: volatiles at 10 mg/mL (Figure 7)
Procedure: To characterize the relationship between ligand-binding and E. obliqua olfactory activity, seven ligands with strong EoblGOBP2 binding affinities were selected for EAG measurements.
The antennal olfactory responses of E. obliqua to seven candidate tea volatiles were tested by the EAG technique. Prior to EAG experiments, all test ligands were dissolved into liquid paraffin at a concentration of 0.1 (v/v). The fresh […] antenna were excised from its base, and immediately attached onto the fork electrode holder using non-drying clay (Spectra 360 Electrode Gel, Parker Laboratories Inc., Orange, NJ, USA). […] All antennae should be tested in three replicates.
The odor stimulus was performed in the pulse while recording the electroantennogram of antennae. (E)-3-hexenol and liquid paraffin were chosen as the positive and negative control CK, respectively. All antennae were stimulated with five samples, and each tested sample was repeated six times. EAG signals were recorded and analyzed with EAG-Pro software (Syntech, Hilversum, NT). The relative values of EAG response were calculated using the following formula: Sr = (Sc − CKm)/(Rm − CKm)·100% [52]. Where Sr is the relative value of the EAG response, Sc is the EAG response for a certain odor, CKm is the mean of the EAG responses of liquid paraffin before and after the test odor stimulus, and Rm is the mean of the EAG response of (Z)-3-hexenol.

[1] = class symbol, protein 1.5 μM, read-out: KD Dissociation Constant
[2] = calculated from IC50: KD = [IC50]/(1 + [1-NPN]/K1-NPN), protein 1.5 μM, read-out: KD Dissociation Constant
[3] = ligand concentration halving 1-NPN fluorescence, protein 1.5 μM

Sequence of EoblGOBP2 (C0JAP5 entry or part of it): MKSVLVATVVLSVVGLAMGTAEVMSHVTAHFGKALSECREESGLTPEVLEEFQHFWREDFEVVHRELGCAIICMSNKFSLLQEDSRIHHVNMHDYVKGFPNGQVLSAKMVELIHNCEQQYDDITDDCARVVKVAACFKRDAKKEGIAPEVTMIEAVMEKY

SMILES | IC50 (EoblGOBP2; class symbol, protein 1.5 μM) | Kd (EoblGOBP2; [1]) | Kd (EoblGOBP2; [2]) | IC50 (EoblGOBP2; [3]) | also measured
C1COCO1 [1,3-dioxolane] | > 50 µM | > 11.2 µM | – | – | binding to EoblGOBP2 (in words) (EoblGOBP2): could not bind
c1ccc(Nc2cccc3ccccc23)cc1 [1-NPN, N-phenyl-1-naphthylamine, reference compound] | – | – | – | – | Kd (EoblGOBP2; direct titration, Scatchard equation, read-out: dissociation constant of 1-NPN to EoblGOBP2): ~2.31 µM
C=CC(O)CC (stereo not drawn) [1-penten-3-ol] | > 50 µM | > 11.2 µM | – | – | –
CCCCCCC/C=C/C=O [(E)-2-decenal] | – | – | 20.7 µM | 92.4 µM | EAG response, male versus female antennae (E. obliqua antennae): stronger in male antennae than in female antennae
CCC/C=C/C=O [(E)-2-hexenal] | – | – | 32.2 µM | 143 µM | EAG response, male versus female antennae (E. obliqua antennae): stronger in male antennae than in female antennae
CC/C=C/C=O [(E)-2-pentenal] | > 50 µM | > 11.2 µM | – | – | –
CC/C=C\CCO [(Z)-3-hexenol] | > 50 µM | > 11.2 µM | – | – | –
CC(=O)c1ccccc1 [Acetophenone] | – | – | 13 µM | 57.9 µM | EAG response, male versus female antennae (E. obliqua antennae): stronger in male antennae than in female antennae
O=Cc1ccccc1 [Benzaldehyde] | – | – | 44.2 µM | 197 µM | EAG response, male versus female antennae (E. obliqua antennae): stronger in male antennae than in female antennae
OCc1ccccc1 [Benzyl alcohol] | > 50 µM | > 11.2 µM | – | – | –
CCCCOC(=O)c1ccccc1C(=O)OCCCC [Dibutyl phthalate] | – | – | 4.35 µM | 19.4 µM | EAG response in male and female antennae (in words) (E. obliqua antennae): weak responses
CCCCCCCCCCCCCCCC(=O)O [Hexadecanoic acid] | > 50 µM | > 11.2 µM | – | – | binding to EoblGOBP2 (in words) (EoblGOBP2): could not bind
C=CC(C)(O)CCC=C(C)C (stereo not drawn) [Linalool] | > 50 µM | > 11.2 µM | – | – | –
COC(=O)c1ccccc1O [Methyl salicylate] | – | – | 43.5 µM | 194 µM | EAG response, male versus female antennae (E. obliqua antennae): stronger in male antennae than in female antennae
CC(C)=CCC/C(C)=C\CO [Nerol] | > 50 µM | > 11.2 µM | – | – | –
CCOP(=O)(OCC)OCC [Triethyl phosphate] | > 50 µM | > 11.2 µM | – | – | –
CCCCCCO [n-hexanol] | > 50 µM | > 11.2 µM | – | – | –
CCCCCO [n-pentanol] | > 50 µM | > 11.2 µM | – | – | –
CC1=CC[C@@H](C(C)(C)O)CC1 [α-terpineol] | > 50 µM | > 11.2 µM | – | – | –
CC(=O)/C=C/C1=C(C)CCCC1(C)C [β-ionone] | – | – | 12.6 µM | 56.1 µM | EAG response in male and female antennae (in words) (E. obliqua antennae): weak responses
